Measurements published in PubChem BioAssay (NCI).
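A five-concentration, 48-hour dose response in 96-well plates underlies each endpoint, interpolated linearly between surrounding concentrations. Definition used: TGI = concentration required for complete inhibition of growth.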

System: LOX IMVI melanoma
Experiment: inhibition of tumour cell growth, NCI panel, 48 h

Compound	TGI
CC(O)(C(=O)N(O)c1ccc(Cl)cc1)c1ccc(Cl)cc1 (stereo not drawn)	> 100 µM
CC1(C)[C@@H]2C[C@H]1c1cnc(-c3ccccn3)cc1[C@H]2C(O)[C@@H]1c2cc(-c3ccccn3)ncc2[C@H]2C[C@@H]1C2(C)C (stereo partly drawn)	4.52 µM
COc1ccc(N2C(=O)C3c4[nH]c5ccccc5c4C4C(C)CCCC4C3C2=O)cc1 (stereo not drawn)	> 100 µM
Brc1ccc2c(c1)-c1nc3c(cc1CC2)CCc1ccc(Br)cc1-3	> 100 µM
OC(c1ccco1)C(F)(F)c1nc2ccccc2o1 (stereo not drawn)	> 100 µM
CCN(C(=O)N[C@H](C(=O)N[C@@H](C)C(=O)OC)C(C)C)c1ccccc1	> 100 µM
CCOC(=O)c1ccc(C(=O)/C(C(=O)OC(C)(C)C)=C2\CCCN2C)n1C	> 100 µM
Cc1cc2c(cc1Cl)SC(NNc1cnc3ccccc3n1)=NS2(=O)=O	> 100 µM
O=[N+]([O-])c1ccc2nc3c(nc2c1)-c1c2ccccc2cc2cccc-3c12	> 23.6 µM
COc1ccc(CN2C(=O)C(=O)N(C)C2=O)c2ccccc12	> 10 µM
OCC1OC(O[C@H]2CN3[C@H](O)[C@@H](O)[C@H](O)[C@H]3C2O)C(O)C(O)C1O (stereo partly drawn)	> 100 µM
O=S1(=O)c2ccccc2NC(=S)N1c1ccccc1	> 66.1 µM
COC(=O)C(CCSC)NC(=O)CSc1nnc(COc2ccc(Cl)cc2)n1-c1ccccc1 (stereo not drawn)	32.4 µM
COc1cc(/C=C/c2cc(=O)cc(/C=C/c3ccc(O)c(OC)c3)o2)ccc1O	> 100 µM
COn1cc(CO)c2ccccc21	> 100 µM
NNC(=O)c1cccc2c1Oc1ccccc1S2	> 100 µM
O=C(/C=C1\C[C@H]2C=Nc3ccccc3C(=O)N2C1)NCCCCCNC(=O)/C=C1\C[C@H]2C=Nc3ccccc3C(=O)N2C1	4.47 µM

Compound	TGI
COc1cc2c(cc1O)CC[n+]1cc3c(OC)c(OC)ccc3cc1-2	> 100 µM
NC(=S)N=Nc1c(O)cc(Nc2ccc(Cl)cc2Cl)c2ccccc12	> 100 µM
CC[P+](C#Cc1ccccc1)(c1ccccc1)c1ccccc1	4.19 µM
Cc1ccc(C(=O)c2[nH]c(Nc3cc(C)ccn3)c(C(=S)Nc3ccccc3)c2N)cc1	> 100 µM
Clc1cccc(C2ON=C(c3ccccc3)N2C23CC4CC(CC(C4)C2)C3)c1Cl (stereo not drawn)	> 10 µM
CNc1ccc2c(c1)Cc1ccccc1-2	> 100 µM
CCN(CC(=O)O)CC(=O)O	> 100 µM
Cc1cc(C)nc(NS(=O)(=O)c2ccc(Nc3c4ccccc4nc4c(C(=O)NCCO)cccc34)cc2)n1	25.5 µM
O=C1NN=C(c2c[nH]c3ccccc23)CC1NCc1ccccc1 (stereo not drawn)	> 100 µM
O=C(NCCCNCCCCNCCCNC(=O)C(F)(F)F)C(F)(F)F	> 100 µM
O=C(O)c1cc2ccccc2c(S(=O)(=O)O)c1O	> 100 µM
COC(=O)c1sc2ncc3c(c2c1N)CC(C)CC3 (stereo not drawn)	> 100 µM
CCOC(=O)c1[nH]c2nc(SC)nc(NC)c2c1N	> 100 µM
Cc1cccc(NC(Nc2cccc(C)c2)=C(C(Cl)=C(Cl)Cl)[N+](=O)[O-])c1	28.7 µM
CC1=CCC[C@H]2[C@](C)(CC3=CC(=O)C4SCCSC4C3=O)[C@@H](C)CC[C@]12C (stereo partly drawn)	24.3 µM
COC(=O)C1=C(C(=O)OC)C2(C)CCC(=O)C1O2 (stereo not drawn)	> 10 µM
Nc1n[nH]c2ccccc12	> 100 µM

System: UO-31 renal
Experiment: inhibition of tumour cell growth, NCI panel, 48 h

Compound	TGI
CC(O)(C(=O)N(O)c1ccc(Cl)cc1)c1ccc(Cl)cc1 (stereo not drawn)	42.4 µM
CC1(C)[C@@H]2C[C@H]1c1cnc(-c3ccccn3)cc1[C@H]2C(O)[C@@H]1c2cc(-c3ccccn3)ncc2[C@H]2C[C@@H]1C2(C)C (stereo partly drawn)	0.445 µM
COc1ccc(N2C(=O)C3c4[nH]c5ccccc5c4C4C(C)CCCC4C3C2=O)cc1 (stereo not drawn)	> 100 µM
Brc1ccc2c(c1)-c1nc3c(cc1CC2)CCc1ccc(Br)cc1-3	> 100 µM
OC(c1ccco1)C(F)(F)c1nc2ccccc2o1 (stereo not drawn)	> 100 µM
CCN(C(=O)N[C@H](C(=O)N[C@@H](C)C(=O)OC)C(C)C)c1ccccc1	> 100 µM
CCOC(=O)c1ccc(C(=O)/C(C(=O)OC(C)(C)C)=C2\CCCN2C)n1C	> 100 µM
Cc1cc2c(cc1Cl)SC(NNc1cnc3ccccc3n1)=NS2(=O)=O	> 100 µM
O=[N+]([O-])c1ccc2nc3c(nc2c1)-c1c2ccccc2cc2cccc-3c12	> 70.9 µM
COc1ccc(CN2C(=O)C(=O)N(C)C2=O)c2ccccc12	> 10 µM
OCC1OC(O[C@H]2CN3[C@H](O)[C@@H](O)[C@H](O)[C@H]3C2O)C(O)C(O)C1O (stereo partly drawn)	> 100 µM
O=S1(=O)c2ccccc2NC(=S)N1c1ccccc1	> 100 µM
COC(=O)C(CCSC)NC(=O)CSc1nnc(COc2ccc(Cl)cc2)n1-c1ccccc1 (stereo not drawn)	13.7 µM
COc1cc(/C=C/c2cc(=O)cc(/C=C/c3ccc(O)c(OC)c3)o2)ccc1O	> 100 µM
COn1cc(CO)c2ccccc21	> 82 µM
NNC(=O)c1cccc2c1Oc1ccccc1S2	> 100 µM
O=C(/C=C1\C[C@H]2C=Nc3ccccc3C(=O)N2C1)NCCCCCNC(=O)/C=C1\C[C@H]2C=Nc3ccccc3C(=O)N2C1	3.8 µM

Compound	TGI
COc1cc2c(cc1O)CC[n+]1cc3c(OC)c(OC)ccc3cc1-2	> 100 µM
NC(=S)N=Nc1c(O)cc(Nc2ccc(Cl)cc2Cl)c2ccccc12	> 100 µM
CC[P+](C#Cc1ccccc1)(c1ccccc1)c1ccccc1	27 µM
Cc1ccc(C(=O)c2[nH]c(Nc3cc(C)ccn3)c(C(=S)Nc3ccccc3)c2N)cc1	> 100 µM
Clc1cccc(C2ON=C(c3ccccc3)N2C23CC4CC(CC(C4)C2)C3)c1Cl (stereo not drawn)	> 10 µM
CNc1ccc2c(c1)Cc1ccccc1-2	> 100 µM
CCN(CC(=O)O)CC(=O)O	> 100 µM
O=C1NN=C(c2c[nH]c3ccccc23)CC1NCc1ccccc1 (stereo not drawn)	> 100 µM
O=C(NCCCNCCCCNCCCNC(=O)C(F)(F)F)C(F)(F)F	> 100 µM
O=C(O)c1cc2ccccc2c(S(=O)(=O)O)c1O	> 100 µM
COC(=O)c1sc2ncc3c(c2c1N)CC(C)CC3 (stereo not drawn)	> 100 µM
CCOC(=O)c1[nH]c2nc(SC)nc(NC)c2c1N	> 100 µM
Cc1cccc(NC(Nc2cccc(C)c2)=C(C(Cl)=C(Cl)Cl)[N+](=O)[O-])c1	26.4 µM
CC1=CCC[C@H]2[C@](C)(CC3=CC(=O)C4SCCSC4C3=O)[C@@H](C)CC[C@]12C (stereo partly drawn)	40.1 µM
COC(=O)C1=C(C(=O)OC)C2(C)CCC(=O)C1O2 (stereo not drawn)	> 10 µM
Nc1n[nH]c2ccccc12	> 100 µM

System: A498 renal
Experiment: inhibition of tumour cell growth, NCI panel, 48 h

Compound	TGI
CC(O)(C(=O)N(O)c1ccc(Cl)cc1)c1ccc(Cl)cc1 (stereo not drawn)	71.7 µM
CC1(C)[C@@H]2C[C@H]1c1cnc(-c3ccccn3)cc1[C@H]2C(O)[C@@H]1c2cc(-c3ccccn3)ncc2[C@H]2C[C@@H]1C2(C)C (stereo partly drawn)	6.24 µM
COc1ccc(N2C(=O)C3c4[nH]c5ccccc5c4C4C(C)CCCC4C3C2=O)cc1 (stereo not drawn)	> 100 µM
Brc1ccc2c(c1)-c1nc3c(cc1CC2)CCc1ccc(Br)cc1-3	> 100 µM
OC(c1ccco1)C(F)(F)c1nc2ccccc2o1 (stereo not drawn)	> 100 µM
CCN(C(=O)N[C@H](C(=O)N[C@@H](C)C(=O)OC)C(C)C)c1ccccc1	> 100 µM
CCOC(=O)c1ccc(C(=O)/C(C(=O)OC(C)(C)C)=C2\CCCN2C)n1C	> 100 µM
Cc1cc2c(cc1Cl)SC(NNc1cnc3ccccc3n1)=NS2(=O)=O	65.7 µM
O=[N+]([O-])c1ccc2nc3c(nc2c1)-c1c2ccccc2cc2cccc-3c12	2.37 µM
COc1ccc(CN2C(=O)C(=O)N(C)C2=O)c2ccccc12	> 10 µM
OCC1OC(O[C@H]2CN3[C@H](O)[C@@H](O)[C@H](O)[C@H]3C2O)C(O)C(O)C1O (stereo partly drawn)	> 100 µM
O=S1(=O)c2ccccc2NC(=S)N1c1ccccc1	> 94.5 µM
COC(=O)C(CCSC)NC(=O)CSc1nnc(COc2ccc(Cl)cc2)n1-c1ccccc1 (stereo not drawn)	46.7 µM
COc1cc(/C=C/c2cc(=O)cc(/C=C/c3ccc(O)c(OC)c3)o2)ccc1O	> 100 µM
COn1cc(CO)c2ccccc21	3.67 µM
NNC(=O)c1cccc2c1Oc1ccccc1S2	> 100 µM
O=C(/C=C1\C[C@H]2C=Nc3ccccc3C(=O)N2C1)NCCCCCNC(=O)/C=C1\C[C@H]2C=Nc3ccccc3C(=O)N2C1	33.5 µM
COc1cc2c(cc1O)CC[n+]1cc3c(OC)c(OC)ccc3cc1-2	> 100 µM
NC(=S)N=Nc1c(O)cc(Nc2ccc(Cl)cc2Cl)c2ccccc12	> 100 µM
CC[P+](C#Cc1ccccc1)(c1ccccc1)c1ccccc1	21.2 µM
Cc1ccc(C(=O)c2[nH]c(Nc3cc(C)ccn3)c(C(=S)Nc3ccccc3)c2N)cc1	> 100 µM
Clc1cccc(C2ON=C(c3ccccc3)N2C23CC4CC(CC(C4)C2)C3)c1Cl (stereo not drawn)	> 10 µM
CNc1ccc2c(c1)Cc1ccccc1-2	71.1 µM
CCN(CC(=O)O)CC(=O)O	> 100 µM
Cc1cc(C)nc(NS(=O)(=O)c2ccc(Nc3c4ccccc4nc4c(C(=O)NCCO)cccc34)cc2)n1	> 100 µM
O=C1NN=C(c2c[nH]c3ccccc23)CC1NCc1ccccc1 (stereo not drawn)	> 100 µM
